According to patent US10280188B2, “Fluorine-containing bisphosphonic acid derivative and use thereof” (NAGASAKI UNIVERSITY, priority 2015, dated 2019):
Like-named read-outs stand apart in the source and are kept apart here.

Assays:
[1] = test system: human histiocytic tumor cell line U937; assay: Specific cytotoxicity of Vδ2 positive γδ T cells on compound-treated U937 (time-resolved fluorescence)
Procedure: A dilution series of 0 μM, 100 μM, 300 μM, 1000 μM was prepared for ZOLF.
A dilution series of 0 μM, 300 μM, 1000 μM, 3000 μM was prepared for ALEF.
A dilution series of 0 μM, 300 μM, 1000 μM, 3000 μM was prepared for PAMF.
A dilution series of 0 μM, 300 μM, 1000 μM, 3000 μM was prepared for IBAF.

[2] = test system: Vδ2 positive γδ T cells in peripheral blood mononuclear cells of adult T cell leukemia patients; assay: Induction of Vδ2 positive γδ T cell proliferation from peripheral blood mononuclear cells of adult T cell leukemia patients (FACS); type: cell-based, human; conditions: ZOLF-POM 1 μM, cultured 11 days with IL-2
Procedure: (§1) Heparin blood samples (peripheral blood 10 mL) were collected from adult T cell leukemia patients (1), and diluted with 10 mL of PBS. This was overlaid on 20 mL of Ficoll-Paque and subjected to density gradient centrifugation at 600×g for 30 min at room temperature. The layer directly above Ficoll-Paque was recovered, and washed 3 times with PBS to give peripheral blood mononuclear cells. The cells were suspended in 7 mL of Yssel medium, 1 mL therefrom was stained with PE-labeled anti-human CD3 monoclonal antibody and FITC-labeled anti-human Vδ2 monoclonal antibody, and analyzed by flow cytometer. As a result, as shown in the panel on the left side in FIG. 2, Vδ2 positive γδ T cells accounted for 0.75% of lymphocyte gate. […] As a result, as shown in the panel on the right side in FIG. 2, Vδ2 positive γδ T cells accounted for 91.48% of lymphocyte gate.
as §1, with “(2),” for “(1),”, “3,” for “2,”, “1.58%” for “0.75%”, “96.83%” for “91.48%”
(§2) Heparin blood samples (peripheral blood 10 mL) were collected from adult T cell leukemia patients (3), and diluted with 10 mL of PBS. […] The cells were suspended in 7 mL of Yssel medium, 1 mL therefrom was stained with PE-labeled anti-human CD3 monoclonal antibody and FITC-labeled anti-human Vδ2 monoclonal antibody, and analyzed by flow cytometer. […]

[3] = test system: Vδ2 positive γδ T cells in peripheral blood mononuclear cells of lung cancer patients; assay: Induction of Vδ2 positive γδ T cell proliferation from peripheral blood mononuclear cells of lung cancer patients (FACS); type: cell-based, human; conditions: ZOLF-POM 1 μM, cultured 11 days with IL-2
Procedure: as §1, with “collected from lung cancer patients (1),” for “collected from adult T cell leukemia patients (1),”, “with 10 ml of PBS.” for “with 10 mL of PBS.”, “in FIG. 5, Vδ2 positive” for “in FIG. 2, Vδ2 positive”, “accounted for 4.14% of lymphocyte” for “accounted for 0.75% of lymphocyte”, “accounted for 98.59% of lymphocyte” for “accounted for 91.48% of lymphocyte”
as §2, with “lung cancer” for “adult T cell leukemia”, “(2),” for “(3),”, “PBS. This was overlaid on 20 mL of Ficoll-Paque and subjected to density gradient centrifugation at 600×g for 30 min at room temperature.” for “PBS.”

[4] = test system: adult T cell leukemia cell line HCT-4; assay: Specific cytotoxicity of Vδ2 positive γδ T cells on compound-treated HCT-4 (time-resolved fluorescence); conditions: γδ T cells from adult T cell leukemia patients (4), E/T 1.25:1-80:1, 1 and 10 μM tested
Procedure: Adult T cell leukemia cell line HCT-4 cells were suspended in RPMI1640 medium at a cell concentration of 1×10^6/mL, and dispensed by 1 mL to a 15 mL conical tube. This was centrifuged at 600×g for 5 min, and the supernatant was removed. […] Thereto was added 10 mM lanthanoid metal chelating agent by 2.5 μL, and the mixture was further incubated for 15 min. These conical tubes were centrifuged at 600×g for 5 min, and the cell pellets were washed 3 times with RPMI1640 medium. Then, the cell pellets were suspended in 5 mL of RPMI1640 medium, 2 mL therefrom was placed in a different conical tube, and 6 mL of RPMI1640 medium was further added. The cell suspension was seeded by 100 μL in a 96 well round bottom plate. […] The plate was centrifuged at 600×g for 2 min, 25 μL of culture supernatant was taken, and diluted with 200 μL of europium-added acetate buffer. The mixture was taken by 200 μL, and time-resolved fluorescence was measured.

[5] = test system: human histiocytic tumor cell line U937; assay: CD107a expression of Vδ2 positive γδ T cells on compound-treated U937 cells (flow cytometry); type: cell-based; conditions: U937 treated 2 hr; Vδ2 positive γδ T cells from normal adult (1)
Procedure: Furthermore, PE-labeled anti-human CD107a monoclonal antibody (5 μL) was added, and the mixture was incubated at 37° C. for 2 hr. Thereto was added FITC-labeled anti-human Vδ2 monoclonal antibody (2 μL), and the mixture was incubated on ice for 20 min. This was washed 3 times with 2% FCS-added PBS, and suspended in 200 μL of 2% FCS-added PBS.

[6] = test system: human bladder cancer cell line EJ-1; assay: Specific cytotoxicity of Vδ2 positive γδ T cells on compound-treated EJ-1 (time-resolved fluorescence); conditions: γδ T cells from normal adult (1), E/T 0:1-40:1
Procedure: Human bladder cancer cell line EJ-1 cells were suspended in RPMI1640 medium at a cell concentration of 1×10^6/mL, and dispensed by 1 mL to a 15 mL conical tube. This was centrifuged at 600×g for 5 min, and the supernatant was removed. […] The compound solutions of the dilution series were added by 1 mL to the cell pellets after removal of the supernatant and incubated at 37° C. for 1 hr 45 min. Thereto was added 10 mM lanthanoid metal chelating agent by 2.5 μL, and the mixture was further incubated for 15 min. These conical tubes were centrifuged at 600×g for 5 min, and the cell pellets were washed 3 times with RPMI1640 medium. Then, the cell pellets were suspended in 5 mL of RPMI1640 medium, 2 mL therefrom was placed in a different conical tube, and 6 mL of RPMI1640 medium was further added. The cell suspension was seeded by 100 μL in a 96 well round bottom plate. Vδ2 positive γδ T cells derived from normal adult (1) were reacted at an effector cell/target cell ratio of 0:1, 5:1, 10:1, 20:1, 40:1, and incubated for 40 min at 37° C. The plate was centrifuged at 600×g for 2 min, 25 μL of culture supernatant was taken, and diluted with 200 μL of europium-added acetate buffer. The mixture was taken by 200 μL, and time-resolved fluorescence was measured.

[7] = U937, γδ T cells from normal adult (1), E/T 0:1-40:1

CCCCCN(C)CCC(F)(P(=O)(O)O)P(=O)(O)O [IBAF, 1-fluoro-3-(methyl(pentyl)amino)propylidene-1,1-bisphosphonic acid]
concentration at which sensitivity to cytotoxicity activity of Vδ2 positive γδ T cells is promoted [1]: at least 300 μM

CC(C)(C)C(=O)OCOP(=O)(OCOC(=O)C(C)(C)C)C(F)(Cn1ccnc1)P(=O)(OCOC(=O)C(C)(C)C)OCOC(=O)C(C)(C)C [ZOLF-POM, tetrakispivaloyloxymethyl-1-fluoro-2-(1H-imidazoyl-1-ethylidene)-1,1-bisphosphonate]
Vδ2 positive γδ T cells, proportion of lymphocyte gate ([2]; adult T cell leukemia patient (1), 0.75% before culture): 91.48% | Vδ2 positive γδ T cells, proportion of lymphocyte gate ([2]; adult T cell leukemia patient (2), 1.58% before culture): 96.83% | Vδ2 positive γδ T cells, proportion of lymphocyte gate ([2]; adult T cell leukemia patient (3), 0.49% before culture): 98.29% | Vδ2 positive γδ T cells, proportion of lymphocyte gate ([3]; lung cancer patient (1), 4.14% before culture): 98.59% | Vδ2 positive γδ T cells, proportion of lymphocyte gate ([3]; lung cancer patient (2), 1.95% before culture): 95.72% | concentration at which sensitivity to cytotoxicity activity of Vδ2 positive γδ T cells is promoted [4]: at least 1 μM | compound concentration that induces maximum CD107a expression [5]: about 100 nM | concentration at which sensitivity to cytotoxicity activity of Vδ2 positive γδ T cells is promoted [6]: at least 1.25 μM

O=P(O)(O)C(F)(Cn1ccnc1)P(=O)(O)O [ZOLF, 1-fluoro-(2-imidazoyl-1-ethylidene)-1,1-bisphosphonic acid]
compound concentration that induces maximum CD107a expression [5]: several hundred

NCCC(F)(P(=O)(O)O)P(=O)(O)O [PAMF, 3-amino-1-fluoro-propylidene-1,1-bisphosphonic acid]
concentration at which sensitivity to cytotoxicity activity of Vδ2 positive γδ T cells is promoted [1, 7]: at least 300 μM | compound concentration that induces maximum CD107a expression [5]: several hundred

NCCCC(F)(P(=O)(O)O)P(=O)(O)O [ALEF, 4-amino-1-fluoro-butylidene-1,1-bisphosphonic acid]
concentration at which sensitivity to cytotoxicity activity of Vδ2 positive γδ T cells is promoted [1, 7]: at least 300 μM | compound concentration that induces maximum CD107a expression [5]: several hundred
